Measured values as given in US11987586B1 (TAKEDA PHARMACEUTICAL COMPANY LIMITED, priority 2022, dated 2024).

Biological target: T1, human OX2 receptor (Homo sapiens, UniProt O43614)
T1 construct: expressed in transfected cells
T1 sequence (O43614 1-444): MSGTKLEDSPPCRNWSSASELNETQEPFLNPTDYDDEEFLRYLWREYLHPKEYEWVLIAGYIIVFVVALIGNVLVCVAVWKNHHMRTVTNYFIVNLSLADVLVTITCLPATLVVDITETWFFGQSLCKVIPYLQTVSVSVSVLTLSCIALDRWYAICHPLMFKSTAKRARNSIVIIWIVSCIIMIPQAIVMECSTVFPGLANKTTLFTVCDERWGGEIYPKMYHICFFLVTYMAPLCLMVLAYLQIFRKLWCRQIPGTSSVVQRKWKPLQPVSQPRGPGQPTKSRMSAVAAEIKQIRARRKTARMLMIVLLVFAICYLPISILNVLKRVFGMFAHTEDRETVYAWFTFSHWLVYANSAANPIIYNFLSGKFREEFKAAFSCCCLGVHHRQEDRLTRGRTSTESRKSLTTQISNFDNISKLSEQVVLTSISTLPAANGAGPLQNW
Assay: Measurement of orexin type 2 receptor agonist activity (calcium fluorescence, Fluo-4, FDSS)
Assay type: cell-based
Conditions: 3 uM test compound; CHO cells expressing human OX2 receptor; DMSO = 0%, 10 nM orexin A (human) = 100%
Procedure: In order to obtain cell clones that stably express human orexin type 2 receptor, human orexin type 2 (residues 1-444, NCBI Reference Sequence: AK314279) was constructed in a pcDNA3.1 (+) vector (Invitrogen) to express in mammalian cells. This plasmid DNA was transfected into CHO-K1 cells by electroporation, and stable clones were obtained by limiting dilution using resistance to G418 as a selection marker.
CHO cells in which human OX2 receptor was forcibly expressed were seeded at 10,000 cells/well into a 384-well black transparent bottom plate (BD falcon), and were incubated at 37° C., 5% CO2 for 1 day after incubation at room temperature for 30 minutes. After removing the cell plate medium, assay buffer containing calcium indicator A (HBSS (Thermo Fisher Scientific), 20 mM HEPES (Thermo Fisher Scientific), 0.1% BSA (Sigma-Aldrich), 2.5 μg/mL Fluo-4 AM (Dojin Kagaku), 0.08% Pluronic F127 (Dojin Kagaku), 1.25 mM probenecid (Dojin Kagaku)) was added at 30 μL/well. After incubation in a 5% CO2 incubator at 37° C. for 30 minutes, it was incubated at room temperature for another 30 minutes. Add 10 μL/well of the test compound diluted with assay buffer B (HBSS, 20 mM HEPES, 0.1% BSA), and use FDSS μCELL (Hamamatsu Photonics) to measure the fluorescence value every 1 second for 1 minute, and then every 2 seconds for 1 minute. It was measured for 1 minute and 40 seconds. The amount of fluorescence value when DMSO is added instead of the test compound is defined as 0%, and the amount of fluorescence value when orexin A (human) (Peptide Institute) with a final concentration of 10 nM is added is defined as 100%. The activity (%) of the test compound was calculated.

OX2R agonist activity (3 uM, %)	SMILES
103%	CCS(=O)(=O)N[C@@H]1Cn2c(cn(-c3noc4cccc(-c5c(F)cc(F)cc5F)c34)c2=O)C1(F)F [Example 91, N-{(6R)-7,7-difluoro-3-oxo-2-[4-(2,4,6-trifluorophenyl)-1,2-benzoxazol-3-yl]-2,5,6,7-tetrahydro-3H-pyrrolo[1,2-c]imidazol-6-yl}ethanesulfonamide]
106%	COCc1cc2onc(N3CC[C@H]4N(C[C@@H](NS(C)(=O)=O)C4(F)F)C3=O)c2c(-c2c(F)cccc2F)c1F [Example 238, N-{(4aR,6R)-2-[4-(2,6-difluorophenyl)-5-fluoro-6-(methoxymethyl)-1,2-benzoxazol-3-yl]-5,5-difluoro-1-oxooctahydropyrrolo[1,2-c]pyrimidin-6-yl}methanesulfonamide]
100%	CNS(=O)(=O)N[C@@H]1CN2C(=O)N(c3noc4cc(F)cc(-c5c(F)cccc5F)c34)C[C@@H]2C1(F)F [Example 310, N-{(6R,7aR)-2-[4-(2,6-difluorophenyl)-6-fluoro-1,2-benzoxazol-3-yl]-7,7-difluoro-3-oxohexahydro-1H-pyrrolo[1,2-c]imidazol-6-yl}-N′-methylsulfuric diamide]
104%	CCOc1cc(-c2c(F)cc(F)cc2F)c2c(N3CC[C@H]4N(C[C@@H](NS(C)(=O)=O)C4(F)F)C3=O)noc2c1 [Example 217, N-{(4aR,6R)-2-[6-ethoxy-4-(2,4,6-trifluorophenyl)-1,2-benzoxazol-3-yl]-5,5-difluoro-1-oxooctahydropyrrolo[1,2-c]pyrimidin-6-yl}methanesulfonamide]
109%	O=C1N(c2noc3cccc(-c4c(F)cccc4F)c23)CC[C@H]2N1C[C@@H](NS(=O)(=O)CF)C2(F)F [Example 284, N-{(4aR,6R)-2-[4-(2,6-difluorophenyl)-1,2-benzoxazol-3-yl]-5,5-difluoro-1-oxooctahydropyrrolo[1,2-c]pyrimidin-6-yl}-1-fluoromethanesulfonamide]
102%	CCS(=O)(=O)N[C@@H]1CN2C(=O)N(c3noc4cc(F)c(F)c(-c5c(F)cccc5F)c34)C[C@@H]2C1(F)F [Example 168, N-{(6R,7aR)-2-[4-(2,6-difluorophenyl)-5,6-difluoro-1,2-benzoxazol-3-yl]-7,7-difluoro-3-oxohexahydro-1H-pyrrolo[1,2-c]imidazol-6-yl}ethanesulfonamide]
96%	CCS(=O)(=O)N[C@@H]1CN2C(=O)N(c3noc4ccc(F)c(-c5c(F)cc(F)cc5F)c34)C[C@@H]2C1(F)F [Example 105, N-{(6R,7aR)-7,7-difluoro-2-[5-fluoro-4-(2,4,6-trifluorophenyl)-1,2-benzoxazol-3-yl]-3-oxohexahydro-1H-pyrrolo[1,2-c]imidazol-6-yl}ethanesulfonamide]
101%	Cc1cc2onc(N3C[C@H]4N(C[C@@H](NS(C)(=O)=O)C4(F)F)C3=O)c2c(-c2c(F)cccc2F)c1F [Example 186, N-{(6R,7aR)-2-[4-(2,6-difluorophenyl)-5-fluoro-6-methyl-1,2-benzoxazol-3-yl]-7,7-difluoro-3-oxohexahydro-1H-pyrrolo[1,2-c]imidazol-6-yl}methanesulfonamide]
114%	O=C1N(c2noc3cccc(-c4c(F)cc(F)cc4F)c23)CC[C@H]2N1C[C@@H](NS(=O)(=O)CF)C2(F)F [Example 203, N-{(4aR,6R)-5,5-difluoro-1-oxo-2-[4-(2,4,6-trifluorophenyl)-1,2-benzoxazol-3-yl]octahydropyrrolo[1,2-c]pyrimidin-6-yl}-1-fluoromethanesulfonamide]
103%	CCOc1cc(-c2c(F)cc(F)cc2F)c2c(-n3cc4n(c3=O)C[C@@H](NS(C)(=O)=O)C4(F)F)noc2c1 [Example 189, N-{(6R)-2-[6-ethoxy-4-(2,4,6-trifluorophenyl)-1,2-benzoxazol-3-yl]-7,7-difluoro-3-oxo-2,5,6,7-tetrahydro-3H-pyrrolo[1,2-c]imidazol-6-yl}methanesulfonamide]
99%	COCc1cc(-c2c(F)cccc2F)c2c(N3CC[C@H]4N(C[C@@H](NS(C)(=O)=O)C4(F)F)C3=O)noc2c1 [Example 215, N-{(4aR,6R)-2-[4-(2,6-difluorophenyl)-6-(methoxymethyl)-1,2-benzoxazol-3-yl]-5,5-difluoro-1-oxooctahydropyrrolo[1,2-c]pyrimidin-6-yl}methanesulfonamide]
103%	CCS(=O)(=O)N[C@H]1Cn2c(cn(-c3noc4cccc(-c5c(F)cccc5F)c34)c2=O)[C@H]1C (relative stereo) [Example 109, rel-N-{(6R,7S)-2-[4-(2,6-difluorophenyl)-1,2-benzoxazol-3-yl]-7-methyl-3-oxo-2,5,6,7-tetrahydro-3H-pyrrolo[1,2-c]imidazol-6-yl}ethanesulfonamide]
105%	CCS(=O)(=O)N[C@@H]1Cn2c(cn(-c3noc4ccc(F)c(-c5c(F)cccc5F)c34)c2=O)C1(F)F [Example 76, N-{(6R)-2-[4-(2,6-difluorophenyl)-5-fluoro-1,2-benzoxazol-3-yl]-7,7-difluoro-3-oxo-2,5,6,7-tetrahydro-3H-pyrrolo[1,2-c]imidazol-6-yl}ethanesulfonamide]
102%	CS(=O)(=O)N[C@@H]1Cn2c(cn(-c3noc4cc(OC(F)F)cc(-c5c(F)cc(F)cc5F)c34)c2=O)C1(F)F [Example 113, N-{(6R)-2-[6-(difluoromethoxy)-4-(2,4,6-trifluorophenyl)-1,2-benzoxazol-3-yl]-7,7-difluoro-3-oxo-2,5,6,7-tetrahydro-3H-pyrrolo[1,2-c]imidazol-6-yl}methanesulfonamide]
99%	CCS(=O)(=O)N[C@@H]1Cn2c(cn(-c3noc4nc(C)cc(-c5c(F)cccc5F)c34)c2=O)C1(F)F [Example 112, N-{(6R)-2-[4-(2,6-difluorophenyl)-6-methyl[1,2]oxazolo[5,4-b]pyridin-3-yl]-7,7-difluoro-3-oxo-2,5,6,7-tetrahydro-3H-pyrrolo[1,2-c]imidazol-6-yl}ethanesulfonamide]
103%	CS(=O)(=O)NC1Cn2c(cn(-c3noc4ccc(F)c(-c5c(F)cc(F)cc5F)c34)c2=O)CC1(F)F (single isomer, unassigned) [Example 231, N-{(6R*)-7,7-difluoro-2-[5-fluoro-4-(2,4,6-trifluorophenyl)-1,2-benzoxazol-3-yl]-3-oxo-2,3,5,6,7,8-hexahydroimidazo[1,5-a]pyridin-6-yl}methanesulfonamide]
105%	O=C1N(c2noc3cc(F)cc(-c4ncc(F)cc4F)c23)CC[C@H]2N1C[C@@H](NS(=O)(=O)C1CC1)C2(F)F [Example 318, N-{(4aR,6R)-2-[4-(3,5-difluoropyridin-2-yl)-6-fluoro-1,2-benzoxazol-3-yl]-5,5-difluoro-1-oxooctahydropyrrolo[1,2-c]pyrimidin-6-yl}cyclopropanesulfonamide]
102%	CCS(=O)(=O)N[C@@H]1CN2C(=O)N(c3noc4cc(C)c(F)c(-c5c(F)cc(F)cc5F)c34)C[C@@H]2C1(F)F [Example 162, N-{(6R,7aR)-7,7-difluoro-2-[5-fluoro-6-methyl-4-(2,4,6-trifluorophenyl)-1,2-benzoxazol-3-yl]-3-oxohexahydro-1H-pyrrolo[1,2-c]imidazol-6-yl}ethanesulfonamide]
104%	CS(=O)(=O)N[C@@H]1CN2C(=O)N(c3noc4cccc(-c5ncc(F)cc5F)c34)CC[C@@H]2C1(F)F [Example 320, N-{(4aR,6R)-2-[4-(3,5-difluoropyridin-2-yl)-1,2-benzoxazol-3-yl]-5,5-difluoro-1-oxooctahydropyrrolo[1,2-c]pyrimidin-6-yl}methanesulfonamide]
106%	CCS(=O)(=O)N[C@@H]1CN2C(=O)N(c3noc4cccc(-c5sccc5C)c34)CC[C@@H]2C1(F)F [Example 332, N-{(4aR,6R)-5,5-difluoro-2-[4-(3-methylthiophen-2-yl)-1,2-benzoxazol-3-yl]-1-oxooctahydropyrrolo[1,2-c]pyrimidin-6-yl}ethanesulfonamide]
